Tested on: Wnt activity (Sp5-Luc reporter, SW480 colon carcinoma cells)
Assay: Wnt activity screening assay: Sp5-Luc reporter gene in SW480 colon carcinoma cells
Format: cell-based
Conditions: Homo sapiens; for EC50: overnight incubation, 10-point curve from 10 μM; for inhibition at 10 µM: given where EC50 >10 μM, read-out: percent inhibition at 10 μM
How it was run: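 Luminescence read-out (BrightGlo) from stable Sp5-Luc SW480 cells, normalized to DMSO-only wells. Cells were treated overnight at 37° C in 1% FBS medium across a 1:3, 10-point series starting at 10 μM. EC50 from variable-slope four-parameter regression; percent inhibition at 10 μM given where EC50 >10 μM.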

SMILES | EC50 [µM] | inhibition at 10 µM [%]
CC(C)(C)C(=O)Nc1cncc(-c2ccc3[nH]nc(-c4cc5c(-c6cccc(F)c6)cccc5[nH]4)c3n2)c1 [Compound 8, N-(5-(3-(4-(3-Fluorophenyl)-1H-indol-2-yl)-1H-pyrazolo[4,3-b]pyridin-5-yl)pyridin-3-yl)pivalamide] | 2.93 | 
CN(C)Cc1cncc(-c2ccc3[nH]nc(-c4cc5c(-c6ccc(F)cc6)cccc5[nH]4)c3n2)c1 [Compound 41, 1-(5-(3-(4-(4-Fluorophenyl)-1H-indol-2-yl)-1H-pyrazolo[4,3-b]pyridin-5-yl)pyridin-3-yl)-N,N-dimethylmethanamine] | 0.362 | 
Fc1ccc(-c2cccc3[nH]c(-c4n[nH]c5ccc(-c6cncnc6)nc45)cc23)cc1 [Compound 55, 3-(4-(4-Fluorophenyl)-1H-indol-2-yl)-5-(pyrimidin-5-yl)-1H-pyrazolo[4,3-b] pyridine] | 1.31 | 
Fc1ccccc1-c1cccc2[nH]c(-c3n[nH]c4ccc(-c5cncc(CN6CCCCC6)c5)nc34)cc12 [Compound 71, 3-(4-(2-Fluorophenyl)-1H-indol-2-yl)-5-(5-(piperidin-1-ylmethyl)pyridin-3-yl)-1H-pyrazolo[4,3-b]pyridine] | 0.663 | 
Fc1ccccc1-c1cccc2[nH]c(-c3n[nH]c4ccc(-c5cncc(CNCc6ccccc6)c5)nc34)cc12 [Compound 80, N-Benzyl-1-(5-(3-(4-(2-fluorophenyl)-1H-indol-2-yl)-1H-pyrazolo[4,3-b]pyridin-5-yl)pyridin-3-yl)methanamine] | > 10 | 44
c1cncc(-c2ccc3[nH]nc(-c4cc5c(-c6cccnc6)cccc5[nH]4)c3n2)c1 [Compound 88, 5-(Pyridin-3-yl)-3-(4-(pyridin-3-yl)-1H-indol-2-yl)-1H-pyrazolo[4,3-b] pyridine] | 0.185 | 
CN(C)Cc1cncc(-c2ccc3[nH]nc(-c4cc5c(-c6cccnc6)cccc5[nH]4)c3n2)c1 [Compound 97, N,N-Dimethyl-1-(5-(3-(4-(pyridin-3-yl)-1H-indol-2-yl)-1H-pyrazolo[4,3-b]pyridin-5-yl)pyridin-3-yl)methanamine] | 0.415 | 
Nc1cncc(-c2ccc3[nH]nc(-c4cc5c(-c6ccncc6)cccc5[nH]4)c3n2)c1 [Compound 115, 5-(3-(4-(Pyridin-4-yl)-1H-indol-2-yl)-1H-pyrazolo[4,3-b]pyridin-5-yl) pyridin-3-amine] | 0.067 | 
Cc1ccncc1-c1ccc2[nH]nc(-c3cc4c(-c5ccncc5)cccc4[nH]3)c2n1 [Compound 117, 5-(4-Methylpyridin-3-yl)-3-(4-(pyridin-4-yl)-1H-indol-2-yl)-1H-pyrazolo [4,3-b]pyridine] | 0.299 | 
c1cc(-c2ccncc2)c2cc(-c3n[nH]c4ccc(-c5cncc(CN6CCCCC6)c5)nc34)[nH]c2c1 [Compound 127, 5-(5-(Piperidin-1-ylmethyl)pyridin-3-yl)-3-(4-(pyridin-4-yl)-1H-indol-2-yl)-1H-pyrazolo[4,3-b]pyridine] | 5.17 | 
c1cc(-c2ccncc2)c2cc(-c3n[nH]c4ccc(-c5cncc(CNCC6CCCC6)c5)nc34)[nH]c2c1 [Compound 137, 1-Cyclopentyl-N-((5-(3-(4-(pyridin-4-yl)-1H-indol-2-yl)-1H-pyrazolo[4,3-b]pyridin-5-yl)pyridin-3-yl)methyl)methanamine] | 7.16 | 
c1ccc(-c2ccc3[nH]nc(-c4cc5c(-c6ccncc6)cccc5[nH]4)c3n2)nc1 [Compound 140, 5-(Pyridin-2-yl)-3-(4-(pyridin-4-yl)-1H-indol-2-yl)-1H-pyrazolo[4,3-b] pyridine] | 3.06 | 
FC1(F)CCN(Cc2cncc(-c3ccc4[nH]nc(-c5cc6c(-c7ccccn7)cccc6[nH]5)c4n3)c2)C1 [Compound 166, 5-(5-((3,3-Difluoropyrrolidin-1-yl)methyl)pyridin-3-yl)-3-(4-(pyridin-2-yl)-1H-indol-2-yl)-1H-pyrazolo[4,3-b]pyridine] | 0.432 | 
c1ccc(-c2cccc3[nH]c(-c4n[nH]c5ccc(-c6cncnc6)nc45)cc23)nc1 [Compound 167, 3-(4-(Pyridin-2-yl)-1H-indol-2-yl)-5-(pyrimidin-5-yl)-1H-pyrazolo[4,3-b] pyridine] | 0.431 | 
CCCCC(=O)Nc1cncc(-c2ccc3[nH]nc(-c4cc5c(N6CCCCC6)cccc5[nH]4)c3n2)c1 [Compound 187, N-(5-(3-(4-(Piperidin-1-yl)-1H-indol-2-yl)-1H-pyrazolo[4,3-b]pyridin-5-yl)pyridin-3-yl)pentanamide] | 0.572 | 
c1ccc(-c2ccc3[nH]nc(-c4cc5c(N6CCCCC6)cccc5[nH]4)c3n2)nc1 [Compound 196, 3-(4-(Piperidin-1-yl)-1H-indol-2-yl)-5-(pyridin-2-yl)-1H-pyrazolo[4,3-b] pyridine] | > 10 | 6.2
Cc1ccncc1-c1ccc2[nH]nc(-c3cc4c(N5CCN(C)CC5)cccc4[nH]3)c2n1 [Compound 229, 3-(4-(4-Methylpiperazin-1-yl)-1H-indol-2-yl)-5-(4-methylpyridin-3-yl)-1H-pyrazolo[4,3-b]pyridine] | 2.02 | 
CN1CCN(c2cccc3[nH]c(-c4n[nH]c5ccc(-c6cncc(NC(=O)c7ccccc7)c6)nc45)cc23)CC1 [Compound 235, N-(5-(3-(4-(4-Methylpiperazin-1-yl)-1H-indol-2-yl)-1H-pyrazolo[4,3-b]pyridin-5-yl)pyridin-3-yl)benzamide] | 4.06 | 
CN1CCN(c2cccc3[nH]c(-c4n[nH]c5ccc(-c6cncnc6)nc45)cc23)CC1 [Compound 251, 3-(4-(4-Methylpiperazin-1l-yl)-1H-indol-2-yl)-5-(pyrimidin-5-yl)-1H-pyrazolo[4,3-b]pyridine] | > 10 | 38.4
c1cncc(-c2ccc3[nH]nc(-c4cc5ccccc5[nH]4)c3n2)c1 [Compound 256, 3-(1H-Indol-2-yl)-5-(pyridin-3-yl)-1H-pyrazolo[4,3-b]pyridine] | 1.3 | 
CN(C)Cc1cncc(-c2ccc3[nH]nc(-c4cc5ccccc5[nH]4)c3n2)c1 [Compound 265, 1-(5-(3-(1H-Indol-2-yl)-1H-pyrazolo[4,3-b]pyridin-5-yl)pyridin-3-yl)-N,N-dimethylmethanamine] | 0.904 | 
FC1(F)CCN(Cc2cncc(-c3ccc4[nH]nc(-c5cc6ccccc6[nH]5)c4n3)c2)C1 [Compound 278, 5-(5-((3,3-Difluoropyrrolidin-1-yl)methyl)pyridin-3-yl)-3-(1H-indol-2-yl)-1H-pyrazolo[4,3-b]pyridine] | 0.117 | 
CN(C)c1cncc(-c2ccc3[nH]nc(-c4cc5c(-c6ccoc6)cccc5[nH]4)c3n2)c1 [Compound 315, 5-(3-(4-(Furan-3-yl)-1H-indol-2-yl)-1H-pyrazolo[4,3-b]pyridin-5-yl)-N,N-dimethylpyridin-3-amine] | 0.6 | 
c1cc(-c2ccoc2)c2cc(-c3n[nH]c4ccc(-c5cncc(CNCC6CCCC6)c5)nc34)[nH]c2c1 [Compound 333, 1-Cyclopentyl-N-((5-(3-(4-(furan-3-yl)-1H-indol-2-yl)-1H-pyrazolo[4,3-b]pyridin-5-yl)pyridin-3-yl)methyl)methanamine] | 3.64 | 
FC1(F)CCN(Cc2cncc(-c3ccc4[nH]nc(-c5cc6c(-c7cccs7)cccc6[nH]5)c4n3)c2)C1 [Compound 362, 5-(5-((3,3-Difluoropyrrolidin-1-yl)methyl)pyridin-3-yl)-3-(4-(thiophen-2-yl)-1H-indol-2-yl)-1H-pyrazolo[4,3-b]pyridine] | 3.24 | 

Source: patent publication US10226453B2, “3-(1H-indol-2-yl)-1H-pyrazolo[4,3-B]pyridines and therapeutic uses thereof” (Samumed, LLC, priority 2015, dated 2019)
